Values of other authors, collected in patent US20080102144A1, “FAT BETA-OXIDATION ENHANCING AND CARBOHYDRATE ABSORPTION INHIBITION SUPPLEMENT” (priority 2006, published 2008).
Where two headings read alike, the source gives them in different places. Blank lines part the entries; values can stand above or below the compound they belong to.

Tests used:
[1] = mice
[2] = system: hepatic glucose-6-phosphate (G-6-P); details: rate-limiting step in gluconeogenesis
[3] = system: carnitine palmitoyltransferase; details: 0.5% and 1.0% supplemented diets after 6 days
[4] = human studies, as opposed to triacylglycerol, no increase in energy expenditure
[5] = 16 weeks, versus triacylglycerol

Compound: Cn1c(=O)c2c(ncn2C)n(C)c1=O [caffeine]
- total serum triglyceride levels [1]: decreased

- carnitine palmitoyltransferase activity in the liver [3]: did not enhance
Compound: O=C(/C=C/c1ccc(O)c(O)c1)O[C@@H]1C[C@](O)(C(=O)O)C[C@@H](O)[C@H]1O [chlorogenic acid]
- cell cycle phase of proliferation arrest (3T3-preadipocyte cells; 3T3-preadipocyte cells): G1 phase
- proliferation of 3T3-preadipocyte cells (3T3-preadipocyte cells; addition to 3T3-preadipocyte tissue cultures): inhibited the proliferation in both and a time- and dose-dependant manner
- inhibition of hepatic glucose-6-phosphate (G-6-P) [2]: selectively inhibit

Compound: diacylglycerol
- hepatic fat oxidation (after a single dose, compared to triacylglycerol): significant increase
- β-oxidation of fatty acids (animal studies, compared against triacylglycerol): increase
- glucose-6-phophate dehydrogenase, malic enzyme, fatty acid synthase and fatty acid synthesis (rats fed diacylglycerol): lower
- mitochondrial and peroxisome oxidation of palmtoyl-CoA in liver homogenates (rats fed diacylglycerol): increased
- β-oxidation of fatty acids [4]: increase
- body mass index [5]: significant decrease
- body weight [5]: significant decrease
- total fat area as assessed by CT scan [5]: significantly reduced
- waist circumference [5]: significant decrease
